The subject of experiment [1] is Clostridium ljungdahlii BCRC 17797. Briefly: HPLC analysis of culture medium: acetic acid produced and lactic acid consumed during CO2 fermentation. Type of experiment: cell-based. The conditions noted are these: for Acetate production: after 96 hours of culture; for carbon atoms contained in acetic acid produced / Acetic Acid ΔC (Ct=144 h − Ct=0), acetic acid produced: 144 hours of culture; for Acetic Acid ΔC (Ct=144 h − Ct=0), acetic acid produced / Acetic Acid Ct=0 h / Acetic Acid Ct=144 h: 2.5 g/L sodium lactate or 1.52 g/L sodium chloride in mPETC; for Acetic Acid Ct=0 h: t=0; for Acetic Acid Ct=144 h: t=144 hours. The procedure: (§1) Clostridium ljungdahlii was first cultured anaerobically with mPETC medium containing 10 g/L of fructose at 37° C. in one of the air-tight bottles mentioned above. When OD600 reached a value ranging from 1 to 1.5, the culture medium was centrifuged at 3500 rpm for 210 seconds. The resulting cell pellet was resuspended with mPETC without fructose and then further cultured anaerobically at 37° C. for one hour to remove any residual sugar substrates.
(§2) 45 ml of mPETC culture medium was added to one of the crimp-top serum bottles mentioned above, which was then covered with an aluminum foil and autoclaved for 15 minutes at 121° C., 15 psi. After cooling, the medium-containing bottle was moved into an anaerobic chamber, and 50 μl of cysteine-HCl (50% w/v) was added to the medium to remove any dissolved oxygen.
(§3) For an experimental group, sodium lactate solution was further added to the culture medium to obtain a lactate concentration of 2.5 g/L (about 0.022 M).
(§4) For a sodium ion control group, NaCl solution was added to the culture medium to obtain a NaCl concentration of 1.52 g/L (about 0.026 M). This control group was designed to test whether the sodium ions present in the sodium lactate play any role in carbon dioxide fixation. Thus, the same molar amount of sodium ion as the experimental group was added.
(§5) Each of the serum bottles containing 45 ml of mPETC culture medium was then inoculated with 5 ml of Clostridium ljungdahlii culture that had residual sugar removed. A sample taken at this point was labeled as t=0 sample. The bottles were then sealed with rubber stoppers and further covered with aluminum crimp caps to ensure an air-tight closure.
The headspaces of the air-tight bottles were first purged with a gas mixture containing 80% N2 and 20% of CO2 under a pressure of 10 psi. Needles were inserted into the rubber stops to allow the gas to escape from the bottles. After about 30 seconds of exposure to the gas mixture, an anaerobic condition filled with CO2 was obtained within the bottles.
Using needles, the headspaces of the bottles were then further purged with another gas mixture containing 80% H2 and 20% of CO2 under a pressure of 20 psi to replace the previous gas mixture. After about 30 seconds, needles were removed and the pressure within the bottles was built up to about 20 psi. The bottles were then moved to a 37° C. incubator and placed on a shaker providing a shaking speed of 100 rpm.
Every 12 hours, a needle was used to release the gas built up within the bottle, and the headspace of the bottle was purged and refreshed under the same process as described above to replenish gaseous carbon source under a stabilized pressure.
(§6) Syringes with needles were used to collect liquid samples. After measuring the OD600, the liquid samples were centrifuged at 12,000 rpm for 10 minutes. The resulting cell pellet was stored in 700 μl TRIzol solution for later RNA extraction and gene expression analysis. The supernatant was analyzed with an Agilent 1100 series high-performance liquid chromatography (HPLC) with Aminex HPX-87 H (300 mm×7.8 mm) column.
The experimental protocol as described in Example 1 was repeated, except that, besides having a no-additive control group, two experimental groups were prepared, one had 1 g/L of lactate in the culture medium and the other had 2.5 g/L of lactate in the culture medium.

For experiment [2], the system named is lactate permease and genes involved in the Wood-Ljungdahl pathway. Briefly: RT-qPCR expression of lactate permease and Wood-Ljungdahl pathway genes. The conditions noted are these: 2.5 g/L sodium lactate; relative to no-additive control group (FIG. 3). It is filed as cell-based, Clostridium ljungdahlii. The protocol:
as §6
Real-time quantitative polymerase chain reaction (RT-qPCR) was used to quantify the expression of certain genes listed in Table 2.

The subject of experiment [3] is Clostridium ljungdahlii BCRC 17797. Briefly: Growth (OD600) of Clostridium ljungdahlii under CO2/H2 gas mixture. It is filed as cell-based. The conditions noted are these: for OD600 value: t=144 hours, 2.5 g/L sodium lactate or 1.52 g/L NaCl in mPETC, 80% H2/20% CO2, 37° C. The procedure:
as §1, §2, §3, §4, §5
The headspaces of the air-tight bottles were first purged with a gas mixture containing 80% N2 and 20% of CO2 under a pressure of 10 psi. Needles were inserted into the rubber stops to allow the gas to escape from the bottles. […]
Syringes with needles were used to collect liquid samples. […] The supernatant was analyzed with an Agilent 1100 series high-performance liquid chromatography (HPLC) with Aminex HPX-87 H (300 mm×7.8 mm) column.

Here are results for two molecules from patent US20140193871A1, “METHOD FOR ENHANCING CARBON BIOFIXATION” (Industrial Technology Research Institute, priority 2013, published 2014).

In experiment [1] (1 g/L lactate in medium), `CC(O)C(=O)O` (stereo not shown) [sodium lactate] showed an Acetate production of 8.13 ± 1.59 g/L. In experiment [1] (2.5 g/L lactate in medium), this molecule showed an Acetate production of 9.15 ± 0.06 g/L. In experiment [1], the “carbon atoms contained in acetic acid produced” value is listed as “about 0.213 M”; the “Acetic Acid ΔC (Ct=144 h − Ct=0), acetic acid produced” value (“Acetic Acid ΔC” for short) is given as 6.39 g/L; the “Acetic Acid Ct=0 h” value stood at 0.06 ± 0.00 g/L; the “Acetic Acid Ct=144 h” value is reported as 6.45 ± 0.43 g/L. Moreover, the “amount of CO2 converted (fixed) to acetic acid, higher than control group” value in experiment [1] (144 hours, 0.191 M versus 0.166 M of control group) was “at least 15%”. For the same molecule, the “carbon atoms that came from CO2 in the gas mixture (CO2 fixed to acetic acid)” value in experiment [1] (144 hours, 2.5 g/L sodium lactate, 0.213 M minus 0.022 M) was “at least 0.191 M”. In experiment [2], the “fold increase of CooS1” value was approximately 3 fold, the “fold increase of lactate permease” value is recorded as approximately 11 fold and the “fold increase of metF” value is recorded as approximately 4 fold. Further, the “difference in growth rates between groups” value in experiment [3] (experimental, sodium ion control and no-additive control groups, up to 144 hours) is recorded as “no significant difference”. In experiment [3], the OD600 value came to 0.71.
With `[Cl-].[Na+]` [sodium chloride, reference compound], in experiment [1], the “carbon atoms contained in acetic acid produced” value is on record as “about 0.166 M”; the “Acetic Acid ΔC” value was found to be 4.91 g/L; the “Acetic Acid Ct=0 h” value was determined as 0.06 ± 0.00 g/L; the “Acetic Acid Ct=144 h” value was determined as 4.97 ± 0.82 g/L. Besides, the “Acetic Acid ΔC” value in experiment [1] (listed as sodium-ion control group) is “about 4.97 g/L”. In experiment [3], the OD600 value is reported as 0.82.
